{"source": "patent US20240092741A1", "about": "“COMPOSITION FOR PREVENTION OR TREATMENT OF NEUROFIBROMATOSIS TYPE 2 SYNDROME” (PRG S&TECH INC., priority 2021, published 2024)", "key": {"[1]": {"test_system": "HEI-193 cells", "test": "MTT cell viability assay in HEI-193 cells", "assay_type": "cell-based, human", "conditions": "indicated concentrations, 7 days (FIG. 5A)", "protocol": "To measure cell viability, MTT (3-(4,5-dimethylthiazol-2-yl)-2,5-diphenyltetrazolium bromide) assay was used. In other words, the cells were seeded in 96-well plates and treated with the indicated chemicals for a predetermined time. After removing the medium, 200 μl of MTT solution (0.5 mg/ml) dissolved in PBS was added to each well. Plates were then cultured at 37° C. for 4 hours, the MTT solution was removed, the precipitated substances were dissolved using a solution (DMSO:ethanol=1:1), and an amount of formazan dye produced was quantified by measuring the absorbance at 560 nm using an ELISA microplate reader (Thermo Fisher Scientific, MA, USA)."}, "[2]": {"biological_target": "T1, interaction between TβR1 and RKIP (Homo sapiens, UniProt P30086+P36897)", "T1 construct": "host or cells: HEI-193", "T1 sequence (P36897 34-503)": "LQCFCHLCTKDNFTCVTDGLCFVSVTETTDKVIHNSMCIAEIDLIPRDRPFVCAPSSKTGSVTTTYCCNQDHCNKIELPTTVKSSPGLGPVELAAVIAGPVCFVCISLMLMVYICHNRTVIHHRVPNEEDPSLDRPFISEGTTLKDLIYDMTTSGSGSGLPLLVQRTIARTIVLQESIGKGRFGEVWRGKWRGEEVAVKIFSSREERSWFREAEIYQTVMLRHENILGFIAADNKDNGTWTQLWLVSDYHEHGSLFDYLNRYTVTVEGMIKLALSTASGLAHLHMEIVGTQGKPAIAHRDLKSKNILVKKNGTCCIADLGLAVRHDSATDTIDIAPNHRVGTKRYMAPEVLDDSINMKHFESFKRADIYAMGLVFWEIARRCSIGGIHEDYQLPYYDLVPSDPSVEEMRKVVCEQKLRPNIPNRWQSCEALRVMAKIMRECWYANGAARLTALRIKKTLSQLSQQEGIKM", "T1 sequence (P30086 2-187 limits assumed)": "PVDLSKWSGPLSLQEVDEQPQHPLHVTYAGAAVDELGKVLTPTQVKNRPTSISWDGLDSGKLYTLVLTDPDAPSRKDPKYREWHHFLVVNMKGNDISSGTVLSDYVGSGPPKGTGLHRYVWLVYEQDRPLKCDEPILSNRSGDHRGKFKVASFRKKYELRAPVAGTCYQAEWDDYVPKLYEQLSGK", "test": "Immunoprecipitation of TβR1-RKIP interaction in transfected HEI-193 cells", "assay_type": "cell-based", "conditions": "FLAG-TβR1- or HA-RKIP-transfected HEI-193 cells, indicated concentrations, 6 h (FIGS. 8A, 9A)", "protocol": "For protein-protein interaction analysis, glutathione S-transferase (GST)-pull down assay was performed. For GST-pull down, agarose-bead-conjugated GST-RKIP recombinant protein was reacted with FLAG-tagged TβR1-transfected HEK 293 cell lysates in PBS buffer at 4° C. for 1 hour. Immunoprecipitation (IP) assay was performed by reacting with FLAG-tagged TβR1- or HA-tagged RKIP-transfected HEI-193 cell lysates in PBS buffer. Whole lysates were reacted with appropriate primary antibodies at 4° C. for 2 hours and with agarose-bead-conjugated protein A/G (Invitrogen, Carlsbad, CA, USA) for 2 hours. After centrifugation, the precipitates were washed twice with RIPA buffer and subjected to SDS-PAGE and western blotting analysis."}, "[3]": {"test_system": "Erk", "test": "Erk activation by Western blotting in HEI-193 cells", "assay_type": "cell-based, human", "conditions": "24 h (FIG. 6A)", "protocol": "Cells were harvested and lysed using RIPA buffer [50 mM Tris-Cl, pH 7.5, 150 mM NaCl, 1% NP-40, 0.1% SDS, and 10% sodium deoxycholate] to examine cellular signaling. Protein concentrations in samples were measured using Bio-Rad (Hercules, CA, USA) protein assay kits and BSA standards. The samples (20 μg protein per lane) were separated by sodium dodecyl sulfate-polyacrylamide gel electrophoresis (SDS-PAGE), transferred to Immobilon-P^SQ transfer membranes (Millipore Corp., MA, USA), which were then cultured with 3% skim milk-containing TBS-T buffer (Tris-HCl-based buffer containing 20 mM Tris pH 7.6, 150 mM NaCl, and 0.05% Tween 20) for 1 hour at room temperature and then reacted with primary antibody in TBS-T overnight at 4° C. The membranes were then washed and reacted with secondary horseradish peroxidase (HRP)-conjugated antibodies [goat anti-mouse, goat anti-rabbit, and mouse anti-goat antibodies (Pierce, Thermo Fisher Scientific, Inc., Rockford, IL, USA)] in TBS-T at room temperature for 2 hours. The blots were detected using an HRP-conjugated secondary antibody using ECL kit (Intron, Seoul, Korea)."}, "[4]": {"test_system": "TGF-β signaling", "test": "3TP-luciferase assay in HEI-193 cells", "assay_type": "cell-based, human", "conditions": "high concentrations, TGF-β1 2 ng/ml (FIG. 8D)", "protocol": "To estimate the transcriptional activity of TGF-β signaling, 3TP-Luc vectors were transfected into cells for 24 hours, and the cells were treated with the indicated chemicals. After washing with wash buffer (Promega, Wisconsin, USA), the cells were lysed using lysis buffer (Promega, Wisconsin, USA). Luciferase activity was measured using a luminometer (MicroDigital, Gyeonggi-do, Korea)."}, "[5]": {"test_system": "RKIP", "test": "Immunoblotting of transfected wild-type and mutant RKIP", "assay_type": "cell-based", "conditions": "10 μM, 24 h (FIG. 8E)", "protocol": "pCMV RKIP-HA was provided by Keum G (David Geffen School of Medicine at University of California, Los Angeles, CA, USA). pCMV RKIP-T101A-HA and pCMV RKIP-T101D-HA were generated by Dr. J. H. Hwang (Pusan National University). pcDNA3 NF2-FLAG, pRK5 TGF beta type 1 receptor-FLAG, and TGF beta type 2 receptor-HA were obtained from Addgene (Cambridge, MA, USA). Transfection was performed using the Jetpei transfection agent (Polyplus New York, USA) for mammalian expression of these vectors.\nIn other words, cells were seeded at a density of 2×10^5 cells/well in 12-well plates and cultured overnight before transfection. The vector (1.5 μg) was mixed with 1.5 μl of Jetpei reagent dissolved in 150 mM NaCl solution. The mixture was reacted at room temperature for 15 minutes, and then added to the cells. After 3 hours, the serum-free medium 15 was replaced with medium supplemented with 10% FBS.\nCells were harvested and lysed using RIPA buffer [50 mM Tris-Cl, pH 7.5, 150 mM NaCl, 1% NP-40, 0.1% SDS, and 10% sodium deoxycholate] to examine cellular signaling. Protein concentrations in samples were measured using Bio-Rad (Hercules, CA, USA) protein assay kits and BSA standards. […] The blots were detected using an HRP-conjugated secondary antibody using ECL kit (Intron, Seoul, Korea)."}, "[6]": {"test_system": "HEI-193 cells", "test": "Tumorsphere formation assay, HEI-193 cells", "assay_type": "cell-based, human", "conditions": "10 μM", "protocol": "(§1) For tumorsphere formation assay, Hei-193 or mouse schwannoma cells (3×10^6 cells/plate) were cultured in DMEM/F12 medium (supplemented with 2% B27 and 40 ng/ml bFGF) and added with the indicated chemicals on non-coated plates for indicated days."}, "[7]": {"test_system": "mouse schwannoma cells", "test": "Tumorsphere formation assay, mouse schwannoma cells", "assay_type": "cell-based", "conditions": "10 μM", "protocol": "as §1"}, "[8]": {"conditions": "tumorspheres, 10th day, immunoblotting (FIGS. 15B, 14E)"}}}
{"smiles": "CCN(CC)CCOc1ccc(-c2nnn(Cc3ccc(OC)cc3)c2N)cc1", "note": "[PRG-N-01, 4-(4-(2-(diethylamino)ethoxy)phenyl)-1-(4-methoxybenzyl)-1H-1,2,3-triazol-5-amino]", "values": [{"measurement": "antiproliferative effect in NF2 cells (MTT)", "setting": "[1]", "value": "obvious antiproliferative effect"}, {"measurement": "binding between TβR1 and RKIP (IP)", "setting": "[2]", "value": "interrupted the binding in a dose-dependent manner"}, {"measurement": "Erk activation", "setting": "[3]", "value": "inhibited Erk activation"}, {"measurement": "TGF-β signaling (3TP-luciferase activity)", "setting": "[4]", "value": "did not inhibit TGF-β signaling even at high concentrations"}, {"measurement": "wild-type RKIP expression", "setting": "[5]; HEI-193 and mouse schwannoma cells transfected with WT RKIP", "value": "induced wild-type RKIP expression"}, {"measurement": "expression of RKIP mutants (T101A stable form, T101D unstable form)", "setting": "[5]; HEI-193 and mouse schwannoma cells transfected with mutants", "value": "did not alter the expression"}, {"measurement": "tumorsphere size and number", "setting": "[6]; HEI-193 cells, 10th day", "value": "reduced the tumorsphere size as well as the number of tumorsphere"}, {"measurement": "tumorsphere formation", "setting": "[6]; HEI-193 cells, DMEM/F12 medium", "value": "obviously inhibited tumorsphere formation"}, {"measurement": "SOX10 expression in tumorspheres", "setting": "[6]; [8]", "value": "obviously increased"}, {"measurement": "expression of stem cell factors (SOX2, c-Myc, Nanog, Oct4) in tumorspheres", "setting": "[6]; [8]", "value": "downregulated to undetectable levels"}, {"measurement": "tumorsphere size and number", "setting": "[7]; 10th day", "value": "reduced the tumorsphere size as well as the number of tumorsphere"}, {"measurement": "tumorsphere formation", "setting": "[7]; DMEM/F12 medium", "value": "obviously inhibited tumorsphere formation"}]}
